In patent US20070275936A1, “Formulations and Treatment Methods” (priority 1998, published 2007):
Where two headings read alike, the source gives them in different places.

Key:
[1] = system: P. berghei HP15 ANKA; test: Four-day in vivo suppressive test in TO mice; parameters: species or system Plasmodium berghei; settings: day 5 blood films, 5 equals control
Experimental: The 4-day suppressive test has been widely used and it can be performed within a 1 week period. The test consists of the inoculation of parasitised erythrocytes on the first day of the experiment (D0), followed by an injection of the test compound, which is also administered on the 2nd, 3rd and 4th days of the protocol. On the 5th day, blood films are taken and antimalarial activity is assessed either by calculating parasitemia, or by scoring parasite numbers on a predetermined scale (i.e., 1-5).
The protocol is summarized as follows. Five female TO mice were used per test group. P. berghei HP15 ANKA parasites were collected by cardiac puncture using a heparinised syringe from a donor mouse having a 30+% parasitaemia. The blood was diluted with diluting agent (50% HIFCS+50% sterile PBS) to a final concentration of 1% parasitaemia or 1×10^7 infected erythrocytes per 0.2 mL of the infecting suspension. […] The steroid formulations were administered intraperitoneally 2 hours after parasite inoculation. The compounds were administered once a day starting on Do, and continued on the following three days. Blood films were made from tail blood on the day after the last dosing of compound and the blood was fixed with 100% methanol and stained with 10% Giemsa. Parasitaemias were scored on a scale of 0-5, where 5 is equal to the control.
An inoculum of 1% parasitaemia […], 0.2 mL per mouse (female strain TO mice), was delivered by intravenous injection. Drug administration commenced 2 hours after inoculation on Day 1 and continued for 3 days.

[2] = system: Chloroquine sensitive T996/86 P. falciparum; test: In vitro antimalarial testing (schizont inhibition / 3H-hypoxanthine incorporation); assay type: cell-based
Experimental: For in vitro antimalarial testing, micro-titer plates were used. The concentration of drugs were prepared as pMol/well according to WHO standard procedures (WHO, 1990). The test compound was dissolved in 15% DMSO in sterile RPMI-1640. Both chloroquine sensitive (e.g., WS/97) and resistant (e.g., MN/97) isolates of Plasmodium species are used.
A schizont inhibition assay was performed as follows. The micro-titer plates were predosed with various concentrations of the test compound. 50 μL of parasitised erythrocyte suspension in RPMI-1640 (0.2 mL erythrocyte+0.3 mL serum+4-5 ml RPMI-1640) were dispensed in microtiter wells that contained various concentrations of drug. Triplicate readings were made for each concentration.
A ^3H-hypoxanthine incorporation assay was performed as follows. The testing was carried out according to the procedure of Desjardins et al. 1979. After 30 hr culture at 37 degrees C., the same microtiter plates from schizont inhibition assays with another triplicate wells were pulsed with ^3H-hypoxanthine for overnight. The cell suspensions were washed twice on millipore glass fiber filter with Millipore filter apparatus. The filter discs were counted for DPM by a Beckman LS6000 β-scintillation counter. The activity of the drug was measured by plotting DPM against concentration of drug.

[3] = system: Plasmodium berghei; test: Lewis rat in vivo parasitemia study; settings: Lewis rats, chloroquine 40 mg/kg i.v. days 0-3
[4] = system: Sprague Dawley rats; test: TNBS induced distal colitis in rats; assay type: in vivo; settings: day 14
Experimental: In another protocol formula 1 compounds were used in a similar animal model. Groups of 10 male Sprague Dawley rats (250-300 grams) were fasted for 24 hours before 2,4,6-trinitrobenzene sulfonic acid (TNBS) or saline challenge. This model presents a severe challenge to the animal's immune system. On Day 0, the rats were lightly anesthetized and a catheter inserted rectally into the colon such that the tip was 8 cm proximal to the anus. Distal colitis was induced by intra-colonic instillation of 0.5 mL of an ethanolic solution of TNBS (60 mg/mL ethanol 50% in water). The test substance, 7-oxodehydroepiandrosterone 20 mg/mL in vehicle or vehicle control was administered by subcutaneous injection (0.1 mL/injection) once a day for 6 days, the first dose being given 30 minutes after TNBS challenge. Sulfasalazine (30 mg/mL in 2% Tween 80 in distilled water) or vehicle control was administered orally (PO) once a day (10 mL/kg/day) for 7 days, the first two doses beginning 24 hours and 2 hours before […] challenge. Signs of diarrhea were recorded daily by examining the anal area. Animals were fasted for 24 hours prior to sacrifice on day 14 and the colon was removed and weighed. After gross observations of colonic tissues, 3 samples were taken from regions approximately 1, 3, and 8 cm proximal to the anus. If gross ulcers or inflammation were present, at least one sample was taken from the affected region. Before removal of the colon, signs of adhesion between the colon and other organs were recorded. […] Body weight, colon-to-body-weight ratio, and damage scores were assessed. Visible damage was scored on a 1-5 scale as follows: 0=No damage; 1=Localized hyperemia but no ulcers; 2=linear ulcers with no significant inflammation; 3=Linear ulcers with inflammation at one site; 4=Two or more sites of ulceration and/or inflammation; 5=Two or more major sites of ulceration and inflammation or one major site of ulceration and inflammation extending more than 1 cm along the length of the colon. […]

[5] = system: Wistar rats; test: DNBS induced distal colitis in rats; assay type: in vivo; settings: for adhesions / colonic ulceration / diarrhea: DNBS rats; for adhesions / colonic ulceration: first study, groups of 3; for diarrhea: 7-oxodehydroepiandrosterone 2 and 20 mg/mL s.c., sulfasalazine PO, AET 20 mg/kg; for animals with moderate acute inflammation: 5 of 10 in immunosteroid vehicle controls; for animals with severe chronic inflammation: 14 days after DNBS challenge, 8 of 10 in immunosteroid vehicle controls
Experimental: Groups of 3 male Wistar rats (180±20 grams) fasted for 24 hours before 2,4-dinitrobenzene sulfonic acid (DNBS) or saline challenge were used. Distal colitis was induced by intra-colonic instillation of 0.5 mL of an ethanolic solution of DNBS (30 mg in 0.5 mL of a 30% ethanol in saline solution) after which 2 mL of air was injected through the cannula to ensure that the solution remained in the colon. The volume used was 0.1 mL per injection of 2 and 20 mg/mL of 7-oxodehydroepiandrosterone in a liquid formulation, was administered by subcutaneous injection once a day for 6 days. The formulation contained […] of 7-oxodehydroepiandrosterone in a non-aqueous suspension that contained 2% benzyl alcohol w/v, 0.1% Brij 96 w/v and equal volumes of PEG 300 and propylene glycol. Concentrations of 2 mg/mL and 20 mg/mL were obtained by diluting the […] with vehicle that lacked the active substance.
The first dose was given 30 minutes after DNBS challenge. Sulfasalazine (30 mg/mL in 2% Tween 80 in distilled water) was administered orally (PO) once a day (10 mL/kg/day) for 7 days, the first two doses beginning 24 hours and 2 hours before DNBS challenge. The presence of diarrhea was recorded daily by examining the anal area. Animals were fasted for 24 hours prior to being sacrificed. Animals were sacrificed on day 7 or day 8 and their colons were removed and weighed. Before removal of the colon, signs of adhesion between the colon and other organs were recorded. Also, the presence of ulcerations was noted after weighing of each colon. The “net” change of colon-to-body weight (BW) ratio was normalized relative to saline-challenged baseline group. A 30% decrease in “net” colon-to-body weight ratio was considered significant.
A total of five studies were conducted. Data from the first study are reported in this report. The 7-oxodehydroepiandrosterone at 2 and 20 mg/mL, decreased the net colon-to-body weight ratio by 19 and by 14% relative to vehicle-treated group, respectively. […] The formula 1 compound 3β,7β,17β-trihydroxyandrost-5-ene (AET) was administered by subcutaneous injections of 2 and 20 mg/day for 5 or 6 days, with the first dose injected 30 minutes post-DNBS challenge. The AET formulation was the same as the 7-oxodehydroepiandrosterone formulation, except that AET replaced 7-oxodehydroepiandrosterone. AET decreased the net colon-to-body weight ratio by 15% and 21% relative to controls (see the table below). Animals treated with AET (20 mg/kg) had no diarrhea. […] The same formulations containing BrEA hemihydrate (100 mg/mL) or dehydroepiandrosterone (20 mg/mL) decreased the net colon-to-body weight ratio by 21 and 3%, respectively relative to controls.

[6] = system: BALB/c mice; test: Reversal of immunosenescence: HBsAg vaccination of aged mice; assay type: in vivo; settings: for mice producing anti-HBsAg in response to secondary vaccination: groups of 8, 0.3 mg/mouse at primary vaccination; for mice with increased anti-HBsAg antibody titer following secondary vaccination: groups of 8, 3 mg/mouse at primary vaccination
Experimental: Healthy aged (20-month) or immunologically-mature (3-month) BALB/c mice were vaccinated with hepatitis B surface antigen (HBsAg) (2 μg; Recombivax-HB; Merck) and Alum (2.75 μg). The aged mice were vaccinated with the antigen and also received a single subcutaneous injection of either 0.3 mg or 3.0 mg of 3β,7β,17β-trihydroxyandrost-5-ene (AET), BrEA or 7-oxodehydroepiandrosterone, dehydroepiandrosterone or the vehicle (placebo control). The AET, BrEA hemihydrate or dehydroepiandrosterone was present in a formulation that contained 60 mg/mL of the compound suspended in 0.1% w/v carboxymethyl cellulose sodium in 0.9% saline. 7-Oxodehydroepiandrosterone was in a formulation that contained 60 mg/mL of the compound suspended in 0.1% w/v gum arabic in 0.9% saline. A concentration of 6 mg/mL was obtained by diluting the 60 mg/mL formulation with vehicle that lacked the active substance.
Blood samples were collected 14, 21 and 34 days after treatment and the sera were analyzed by ELISA to determine the concentration of HBsAg-specific IgG (total IgG). In addition, samples obtained on day 21 were analyzed to determine the concentration of HBsAg-specific IgG1 and IgG2a subclasses. The results summarized below were average values obtained with blood samples collected 21 days after vaccination of groups of 8 mice. Subcutaneous injection was performed after shaving the hair from the thighs of each mouse. The injected volume was 50 μL for compound (3.0 mg or 0.3 mg) or placebo, and for vaccine preparation. The vehicle control consisted of carboxymethylcellulose (0.5%) in saline (0.9%). Antibody titers were determined by ELISA.
Secondary antibody response. Later, 42 days after the initial exposure to HBsAg, serum samples were taken from the mice described in the previous section and these were tested for anti-HBsAg IgG. At this time-point, vaccine-specific IgG titers were either low or undetectable. Three days later (45 days after first vaccination), the mice were injected again with HBsAg in Alum, but this time, none of the mice received immunosteroid (secondary vaccination). Serum samples collected 7 days and 14 days after the second exposure to HBsAg vaccine were assayed for anti-HBsAg antibody. […] In contrast, in aged mice that had received no immunosteroid with the first HBsAg injection, low levels of anti-HBsAg were detectable, and only in 4 of the 8 mice in this group was antibody detectable. Increases in anti-HBsAg titers were seen following secondary vaccination in aged animals that had been treated with immunosteroid in conjunction with the first HBsAg exposure. The anti-HBsAg antibody titer in serum increased following secondary vaccination in all 8 mice in the groups of aged mice that were treated at primary vaccination with the higher dose (3 mg/mouse) of AET, BrEA or 7-oxodehydroepiandrosterone, or with dehydroepiandrosterone (0.3 mg/mouse). In those aged mice that had received the lower dose (0.3 mg/mouse) of AET, BrEA or 7-oxodehydroepiandrosterone at vaccination, an intermediate response was seen, with 6 of the 8 mice producing detectable anti-HBsAg in response to secondary vaccination.

[7] = T996/86 P. falciparum in vitro, read-out: IC50

Molecule: Etienic Acid
- Parasitaemia Score (0-5) ([1]; 100 mg/kg × 4 days i.p.): 2

Molecule: Etianic Acid Methyl Ester
- % inhibition ([2]; 0.938 μM): 47.1%
- % inhibition ([2]; 1.875 μM): 43.4%
- % inhibition ([2]; 3.25 μM): 41.4%
- % inhibition ([2]; 7.5 μM): 45.3%
- % inhibition ([2]; 15 μM): 47.4%
- % inhibition ([2]; 30 μM): 61.5%
- IC50 [2, 7]: 17.5 µM

Molecule: CCN(CC)CCCC(C)Nc1ccnc2cc(Cl)ccc12 (centres unmarked) [Chloroquine, reference compound]
- IC50 ([2]; Plasmodium falciparum, T996): 0.009 µM
- inhibition at 0.00625 µM ([2]; Plasmodium falciparum, T996): 27.2%
- inhibition at 0.0125 µM ([2]; Plasmodium falciparum, T996): 86.8%
- inhibition at 0.025 µM ([2]; Plasmodium falciparum, T996): 94.5%
- inhibition at 0.05 µM ([2]; Plasmodium falciparum, T996): 97.3%
- inhibition at 0.1 µM ([2]; Plasmodium falciparum, T996): 94.6%
- inhibition at 0.2 µM ([2]; Plasmodium falciparum, T996): 95.9%
- % RBC parasitemia ([3]; Day 4, saline control 16%): 10%
- % RBC parasitemia ([3]; Day 11, saline control 36%): 16%
- Parasitaemia Score (0-5) ([1]; 3 mg/kg × 4 days i.p.): 1

Molecule: C[C@]12CC[C@H](O)CC1=CC(=O)[C@@H]1[C@@H]2CC[C@]2(C)C(=O)CC[C@@H]12 [7-oxodehydroepiandrosterone]
- histopathology: inflammation / lesion frequency and severity versus controls [4]: exacerbated the inflammation
- adhesions [5]: Adhesions were absent in all three tested animals
- colonic ulceration [5]: 1/3
- diarrhea [5]: All animals had diarrhea
- mice producing anti-HBsAg in response to secondary vaccination [6]: 6 mice
- mice with increased anti-HBsAg antibody titer following secondary vaccination [6]: 8 mice

Molecule: C[C@]12CC[C@H]3[C@@H]([C@@H](O)C=C4C[C@@H](O)CC[C@@]43C)[C@@H]1CC[C@@H]2O [AET, 3β,7β,17β-trihydroxyandrost-5-ene]
- animals with moderate acute inflammation ([5]; 7 days after DNBS challenge): 6 animals
- animals with severe chronic inflammation [5]: 3 animals
- animals with ulcers ([5]; 14 days after challenge, treatment began the same day as challenge): 1 animal
- adhesions [5]: Adhesion was absent
- diarrhea [5]: no diarrhea
- mice producing anti-HBsAg in response to secondary vaccination [6]: 6 mice
- mice with increased anti-HBsAg antibody titer following secondary vaccination [6]: 8 mice

Molecule: O=C(O)c1cc(/N=N/c2ccc(S(=O)(=O)Nc3ccccn3)cc2)ccc1O [Sulfasalazine]
- animals with severe acute inflammation ([5]; 7 days after DNBS challenge, 3 of 10 in immunosteroid vehicle controls): 3 animals
- animals with moderate acute inflammation ([5]; 7 days after DNBS challenge): 6 animals
- animals with severe chronic inflammation [5]: 2 animals
- adhesions [5]: no animals exhibited adhesions or colonic ulceration
- colonic ulceration [5]: no animals exhibited adhesions or colonic ulceration
- diarrhea [5]: all animals treated with Sulfazalazine had diarrhea

Molecule: Etienic Acid Methyl Ester
- % inhibition ([2]; 0.938 μM): 43.3%
- % inhibition ([2]; 1.875 μM): 41%
- % inhibition ([2]; 3.25 μM): 46%
- % inhibition ([2]; 7.5 μM): 40.9%
- % inhibition ([2]; 15 μM): 45.7%
- % inhibition ([2]; 30 μM): 60%
- IC50 [2, 7]: 19.5 µM
